# Test results: patent US20120108422A1, “Antifungal 1,2,4-triazolyl Derivatives” (BASF SE, priority 2009, published 2012)
# Assay: physchem
row,SMILES,logP
1,"CC(Cc1ccc(F)cc1F)CC(O)(Cn1nc[nH]c1=S)C(C)(C)C (centres unmarked) [Example 2, 2-[2-tert-butyl-5-(2,4-difluorophenyl)-2-hydroxy-4-methyl-pentyl]-2,4-dihydro-[1,2,4]triazole-3-thione]",3.8
2,"CC(C)(C)C(O)(CCCCc1ccc(Cl)cc1)Cn1nc[nH]c1=S (centres unmarked) [Example 17, 1-[2-tert-butyl-6-(4-chlorophenyl)-2-hydroxyhexyl]-1H-1,2,4-triazole-5(4H)-thione]",4.2
3,"CC(C)(C)C(O)(CCCCc1ccccc1Cl)Cn1nc[nH]c1=S (centres unmarked) [Example 18, 1-[2-tert-butyl-6-(2-chlorophenyl)-2-hydroxyhexyl]-1H-1,2,4-triazole-5(4H)-thione]",4
4,"CC(C)(C)C(O)(CCCCc1ccccc1F)Cn1nc[nH]c1=S (centres unmarked) [Example 19, 1-[2-tert-butyl-6-(2-fluorophenyl)-2-hydroxyhexyl]-1H-1,2,4-triazole-5(4H)-thione]",3.4
5,"CC(C)(C)C(O)(CCCCc1ccccc1)Cn1nc[nH]c1=S (centres unmarked) [Example 16, 1-[2-tert-butyl-6-phenyl-2-hydroxyhexyl]-1H-1,2,4-triazole-5(4H)-thione]",3.6

# Continued, values first:
row,logP,SMILES
1,4,"CC(C)(C)C(O)(CCCCCc1ccc(F)cc1)Cn1nc[nH]c1=S (centres unmarked) [Example 21, 1-[2-tert-butyl-7-(4-fluorophenyl)-2-hydroxyheptyl]-1H-1,2,4-triazole-5(4H)-thione]"
2,3.3,"CC(C)(C)C(O)(CCCc1ccc(F)cc1F)Cn1nc[nH]c1=S (centres unmarked) [Example 10, 2-[2-tert-butyl-5-(2,4-difluoro-phenyl)-2-hydroxy-pentyl]-2,4-dihydro-[1,2,4]triazole-3-thione]"
3,3.7,"CC(C)(C)C(O)(CCCCc1ccc(F)cc1)Cn1nc[nH]c1=S (centres unmarked) [Example 15, 1-[2-tert-Butyl-6-(4-fluorophenyl)-2-hydroxyhexyl]-1H-1,2,4-triazole-5(4H)-thione]"
4,4.4,"CC(C)(C)C(O)(CCCCCc1ccc(Cl)cc1)Cn1nc[nH]c1=S (centres unmarked) [Example 23, 1-[2-tert-butyl-7-(4-chlorophenyl)-2-hydroxyheptyl]-1H-1,2,4-triazole-5(4H)-thione]"
5,4.2,"CC(C)(C)C(O)(CCCCCc1ccccc1F)Cn1nc[nH]c1=S (centres unmarked) [Example 22, 1-[2-tert-butyl-7-(2-fluorophenyl)-2-hydroxyheptyl]-1H-1,2,4-triazole-5(4H)-thione]"
6,4.7,"CC(C)(C)C(O)(CCCCc1ccc(Cl)cc1Cl)Cn1nc[nH]c1=S (centres unmarked) [Example 20, 1-[2-tert-butyl-6-(2,4-dichlorophenyl)-2-hydroxyhexyl]-1H-1,2,4-triazole-5(4H)-thione]"
